The values below come from US8551984B2, “Aminopyrimidines as SYK inhibitors” (Merck Sharp & Dohme Corp., priority 2009, dated 2013).

Usually IC50 stands for the concentration at which inhibition is half-maximal.

The target of one assay is recombinant human SYK (GST-hSYK fusion protein) (Homo sapiens, UniProt P43405). Briefly: biochemical. Conditions: rhSYK Activity, Table 113A.
Excerpt: Homogeneous Time-Resolved Fluorescence (HTRF) Assay for the Recombinant Human SYK Enzyme:
In the case of `Cc1cc(Nc2nccc(C)n2)cc(-c2cnc(C3(O)CCC(C(=O)O)C(C)C3)s2)c1` (stereo not drawn) [Example 113A-4], the half-inhibitory concentration (IC50) is < 100 nM.
The same measure, in the same setting: the value for `COC(=O)C1CCC(O)(c2ncc(-c3cc(C)cc(Nc4nccc(C)n4)c3)s2)CC1C` (stereo not drawn) [Example 113A-8] was < 100 nM; that for `COC(=O)C1CCC(O)(c2ncc(-c3cc(C)cc(Nc4nccc(C)n4)c3)s2)CC1C` (stereo not drawn) [Example 113A-9] was 100 to 1000 nM.
As for `COC(=O)C1CCC(O)(c2ncc(-c3cc(C)cc(Nc4nccc(C)n4)c3)s2)CC1C` (stereo not drawn) [Example 113A-10], the half-maximal inhibitory concentration (IC50) is < 100 nM.
Still for that read-out and setting: the value for `COC(=O)C1CCC(O)(c2ncc(-c3cc(C)cc(Nc4nccc(C)n4)c3)s2)CC1C` (stereo not drawn) [Example 113A-11] was < 100 nM.
For the molecule `COC(=O)C1CCC(O)(c2ncc(-c3cc(C)cc(Nc4nccc(C)n4)c3)s2)CC1C` (stereo not drawn) [Example 113A-12], the concentration for half-maximal inhibition (IC50) was in the range of 100 to 1000 nM.
In the case of `COC(=O)C1CCC(O)(c2ncc(-c3cc(C)cc(Nc4nccc(C)n4)c3)s2)CC1C` (stereo not drawn) [Example 113A-13], the IC50 lay within 100 to 1000 nM.
On the same count and under the same terms, the figure for `CCc1ccnc(Nc2cc(C)cc(-c3cnc(C4(O)CCC(C(=O)O)C(C)C4)s3)c2)n1` (stereo not drawn) [Example 113A-14] is < 100 nM; for `COc1ccnc(Nc2cc(C)cc(-c3cnc([C@@]4(O)CC[C@H](C(=O)O)[C@H](C)C4)s3)c2)n1` [Example 113A-16] it is < 100 nM; for `Cc1cc(Nc2ncc(F)c(C)n2)cc(-c2cnc([C@]3(O)CC[C@@H](C(=O)O)[C@@H](C)C3)s2)c1` [Example 113A-19] it is < 100 nM.
The same measure, in the same setting: the value for `Cc1cc(Nc2nccc(C3CC3)n2)cc(-c2cnc([C@]3(O)CC[C@@H](C(=O)O)[C@@H](C)C3)s2)c1` [Example 113A-20] was < 100 nM; that for `Cc1cc(Nc2nccc(C3CC3)n2)cc(-c2cnc([C@@]3(O)CC[C@H](C(=O)O)[C@H](C)C3)s2)c1` [Example 113A-21] was < 100 nM.
Still for that read-out and setting: the figure for `Cc1cc(Nc2nccc(C3CC3)n2)cc(-c2cnc(C3(O)CCC(C(=O)O)C(C)C3)s2)c1` (stereo not drawn) [Example 113A-22] is < 100 nM; for `Cc1ccnc(Nc2cc(-c3cnc(C4(O)CCC(C(=O)O)C(C)C4)s3)cc(C3CC3)c2)n1` (stereo not drawn) [Example 113A-23] it is < 100 nM; for `Cc1cc(Nc2nccc(C(C)C)n2)cc(-c2cnc([C@@]3(O)CC[C@H](C(=O)O)[C@H](C)C3)s2)c1` [Example 113A-25] it is < 100 nM.
Turning to `Cc1cc(Nc2nccc(C(C)C)n2)cc(-c2cnc([C@]3(O)CC[C@@H](C(=O)O)[C@@H](C)C3)s2)c1` [Example 113A-26], the 50% inhibitory concentration (IC50) was < 100 nM.
The same measure, in the same setting: the figure for `Cc1cc(Nc2ncc(Cl)c(C)n2)cc(-c2cnc([C@@]3(O)CC[C@H](C(=O)O)[C@H](C)C3)s2)c1` [Example 113A-27] is < 100 nM; for `Cc1cc(Nc2ncc(Cl)c(C)n2)cc(-c2cnc([C@]3(O)CC[C@@H](C(=O)O)[C@@H](C)C3)s2)c1` [Example 113A-28] it is < 100 nM; for `CCOC(=O)C1CCC(O)(c2ncc(-c3cc(C)cc(Nc4nccc(CC)n4)c3)s2)CC1C` (stereo not drawn) [Example 113A-31] it is < 100 nM.
On the same count and under the same terms, the value for `Cc1cc(Nc2ncc(F)c(C3CC3)n2)cc(-c2cnc([C@@]3(O)CC[C@H](C(=O)O)[C@H](C)C3)s2)c1` [Example 113A-33] was < 100 nM; that for `Cc1cc(Nc2ncc(F)c(C3CC3)n2)cc(-c2cnc([C@]3(O)CC[C@@H](C(=O)O)[C@@H](C)C3)s2)c1` [Example 113A-34] was < 100 nM.
Same read-out and setting: the value for `Cc1cc(Nc2nccc(OC(C)C)n2)cc(-c2cnc([C@]3(O)CC[C@@H](C(=O)O)[C@@H](C)C3)s2)c1` [Example 113A-35] was < 100 nM; that for `COc1nc(Nc2cc(C)cc(-c3cnc([C@@]4(O)CC[C@H](C(=O)O)[C@H](C)C4)s3)c2)ncc1Cl` [Example 113A-36] was < 100 nM; that for `COc1nc(Nc2cc(C)cc(-c3cnc([C@]4(O)CC[C@@H](C(=O)O)[C@@H](C)C4)s3)c2)ncc1Cl` [Example 113A-37] was < 100 nM.
In the case of `COCCOc1ccnc(Nc2cc(C)cc(-c3cnc(C4(O)CCC(C(=O)O)C(C)C4)s3)c2)n1` (stereo not drawn) [Example 113A-38], the IC50 is < 100 nM.
On the same count and under the same terms, the figure for `COCCCOc1ccnc(Nc2cc(C)cc(-c3cnc(C4(O)CCC(C(=O)O)C(C)C4)s3)c2)n1` (stereo not drawn) [Example 113A-40] is < 100 nM; for `COCc1cc(Nc2nccc(C(F)(F)F)n2)cc(-c2cnc(C3(O)CCC(C(=O)O)C(C)C3)s2)c1` (stereo not drawn) [Example 113A-42] it is < 100 nM.
On to `CCOC(=O)C1CCC(O)(c2ncc(-c3cc(C)cc(Nc4nccc(OCCOC)n4)c3)s2)CC1C` (stereo not drawn) [Example 113A-43], for which the 50% inhibitory concentration (IC50) was < 100 nM.
For `CCOC(=O)C1CCC(O)(c2ncc(-c3cc(C)cc(Nc4nccc(OCCCOC)n4)c3)s2)CC1C` (stereo not drawn) [Example 113A-47], the half-inhibitory concentration (IC50) was < 100 nM.
Regarding `CCc1ccnc(Nc2cc(C)cc(-c3cnc([C@@]4(O)CC[C@H](C(=O)O)C(C)(C)C4)s3)c2)n1` [Example 113A-49], the IC50 is < 100 nM.
Still for that read-out and setting: the figure for `COC(=O)[C@H]1CC[C@](O)(c2ncc(-c3cc(C)cc(Nc4nccc(C#N)n4)c3)s2)CC1(C)C` [Example 113A-50] is < 100 nM; for `Cc1cc(Nc2nccc(C3CC3)n2)cc(-c2cnc(C3(O)CCC(C(=O)O)C(C)(C)C3)s2)c1` (stereo not drawn) [Example 113A-51] it is < 100 nM.
Consider `Cc1cc(Nc2nccc(C(C)C)n2)cc(-c2cnc(C3(O)CCC(C(=O)O)C(C)(C)C3)s2)c1` (stereo not drawn) [Example 113A-52], for which the concentration for half-maximal inhibition (IC50) is < 100 nM.
With `CCc1ccnc(Nc2cc(C)cc(-c3cnc([C@@]4(O)CC[C@H](C(=O)OC)C(C)(C)C4)s3)c2)n1` [Example 113A-53], the IC50 was < 100 nM.
The same measure, in the same setting: the value for `COC(=O)[C@H]1CC[C@](O)(c2ncc(-c3cc(C)cc(Nc4nccc(OC)n4)c3)s2)CC1(C)C` [Example 113A-54] was < 100 nM; that for `COC(=O)[C@@H]1CC[C@@](O)(c2ncc(-c3cc(C)cc(Nc4nccc(OC)n4)c3)s2)CC1(C)C` [Example 113A-55] was < 100 nM; that for `COC(=O)C1CCC(O)(c2ncc(-c3cc(C)cc(Nc4nccc(C5CC5)n4)c3)s2)CC1(C)C` (stereo not drawn) [Example 113A-56] was < 100 nM.
In the case of `Cc1cc(Nc2ncc(F)c(C3CC3)n2)cc(-c2cnc(C3(O)CCC(C(=O)O)C(C)(C)C3)s2)c1` (stereo not drawn) [Example 113A-57], the IC50 was < 100 nM.
For `Cc1cc(Nc2ncc(F)c(C3CC3)n2)cc(-c2cnc([C@@]3(O)CC[C@H](C(=O)O)C(C)(C)C3)s2)c1` [Example 113A-58], the IC50 is < 100 nM.
On the same count and under the same terms, the figure for `COCc1cc(Nc2nccc(C(F)(F)F)n2)cc(-c2cnc([C@@]3(O)CC[C@H](C(=O)O)C(C)(C)C3)s2)c1` [Example 113A-62] is < 100 nM.
Turning to `COC(=O)C1CCC(O)(c2ncc(-c3cc(Cl)cc(Nc4nccc(C(F)(F)F)n4)c3)s2)CC1(C)C` (stereo not drawn) [Example 113A-63], the IC50 was 100 to 1000 nM.
On the same count and under the same terms, the value for `Cc1cc(Nc2nccc(C)n2)cc(-c2cnc(C3(O)CCC(C(=O)O)C(C)C3C)s2)c1` (stereo not drawn) [Example 113A-66] was < 100 nM.
With `CCOC(=O)C1CCC(O)(c2ncc(-c3cc(C)cc(Nc4nccc(C)n4)c3)s2)C(C)C1C` (stereo not drawn) [Example 113A-70], the IC50 is < 100 nM.
For the molecule `Cc1cc(Nc2nccc(C)n2)cc(-c2cnc(C3(O)CCC(C(=O)O)CC3C)s2)c1` (stereo not drawn) [Example 113A-80], the IC50 was < 100 nM.
On to `CCOC(=O)C1CCC(O)(c2ncc(-c3cc(C)cc(Nc4nccc(C)n4)c3)s2)C(C)C1` (stereo not drawn) [Example 113A-87], for which the IC50 was < 100 nM.
Still for that read-out and setting: the value for `Cc1cc(Nc2nccc(C(F)(F)F)n2)cc(-c2cnc(C3(O)CCC(C(=O)O)CC3C)s2)c1` (stereo not drawn) [Example 113A-88] was < 100 nM; that for `CCOC(=O)C1CCC(O)(c2ncc(-c3cc(C)cc(Nc4nccc(C(F)(F)F)n4)c3)s2)C(C)C1` (stereo not drawn) [Example 113A-89] was < 100 nM; that for `Cc1cc(Nc2nccc(C)n2)cc(-c2cnc(C3(O)CCC(C(=O)O)CC3O)s2)c1` (stereo not drawn) [Example 113A-90] was < 100 nM.
Take `Cc1cc(Nc2nccc(C)n2)cc(-c2cnc(C3(O)CCC(C(=O)O)CC3(C)C)s2)c1` (stereo not drawn) [Example 113A-92]: the IC50 was < 100 nM.

The same assay, now with this note: rhSYK Activity, Table 113B.
Regarding `Cc1cc(Nc2nccc(C)n2)cc(-c2cnc(C3(O)CC(C)C(C(=O)O)CC3C)s2)c1` (stereo not drawn) [Example 113B-3], the IC50 was < 100 nM.
The same measure, in the same setting: the figure for `CCOC(=O)C1CC(C)C(O)(c2ncc(-c3cc(C)cc(Nc4nccc(C)n4)c3)s2)CC1C` (stereo not drawn) [Example 113B-7] is < 100 nM; for `CCOC(=O)C1CC(C)C(O)(c2ncc(-c3cc(C)cc(Nc4nccc(C)n4)c3)s2)CC1C` (stereo not drawn) [Example 113B-8] it is < 100 nM.
Consider `CCOC(=O)C1CC(C)C(O)(c2ncc(-c3cc(C)cc(Nc4nccc(C)n4)c3)s2)CC1C` (stereo not drawn) [Example 113B-9], for which the half-maximal inhibitory concentration (IC50) is < 100 nM.
Same read-out and setting: the value for `CCOC(=O)C1CC(C)C(O)(c2ncc(-c3cc(C)cc(Nc4nccc(C)n4)c3)s2)CC1C` (stereo not drawn) [Example 113B-10] was < 100 nM; that for `CCOC(=O)C1CC(C)C(O)(c2ncc(-c3cc(C)cc(Nc4nccc(C)n4)c3)s2)CC1C` (stereo not drawn) [Example 113B-11] was 100 to 1000 nM.
As to `Cc1cc(Nc2nccc(C(F)(F)F)n2)cc(-c2cnc(C3(O)CC(C)C(C(=O)O)CC3C)s2)c1` (stereo not drawn) [Example 113B-12], the IC50 was < 100 nM.
For the molecule `CCOC(=O)C1CC(C)C(O)(c2ncc(-c3cc(C)cc(Nc4nccc(C(F)(F)F)n4)c3)s2)CC1C` (stereo not drawn) [Example 113B-17], the concentration for half-maximal inhibition (IC50) is < 100 nM.
The same measure, in the same setting: the value for `CCOC(=O)C1CC(C)C(O)(c2ncc(-c3cc(C)cc(Nc4nccc(C(F)(F)F)n4)c3)s2)CC1C` (stereo not drawn) [Example 113B-18] was < 100 nM; that for `CCOC(=O)C1CC(C)C(O)(c2ncc(-c3cc(C)cc(Nc4nccc(C(F)(F)F)n4)c3)s2)CC1C` (stereo not drawn) [Example 113B-19] was < 100 nM.
Regarding `CCOC(=O)C1CC(C)C(O)(c2ncc(-c3cc(C)cc(Nc4nccc(C(F)(F)F)n4)c3)s2)CC1C` (stereo not drawn) [Example 113B-20], the IC50 was in the range of 100 to 1000 nM.
Turning to `Cc1cc(Nc2nccc(C)n2)cc(-c2cnc(C3(O)CC(C)C(C(=O)O)C(C)C3)s2)c1` (stereo not drawn) [Example 113B-21], the concentration for half-maximal inhibition (IC50) is < 100 nM.
`Cc1cc(Nc2nccc(C)n2)cc(-c2cnc(C3(O)CC(C)C(C(=O)OC(C)C)C(C)C3)s2)c1` (stereo not drawn) [Example 113B-23]: the 50% inhibitory concentration (IC50) is 100 to 1000 nM.
On the same count and under the same terms, the value for `Cc1cc(Nc2nccc(C(F)(F)F)n2)cc(-c2cnc(C3(O)CC(C)C(C(=O)O)C(C)C3)s2)c1` (stereo not drawn) [Example 113B-24] was < 100 nM.
